Measurements as given in BindingDB's records for patent US10383835 (University of California, 2019).

Target: T1, Bifunctional epoxide hydrolase 2 (Sus scrofa, UniProt Q6Q2C2)
T1 sequence (Q6Q2C2 whole entry): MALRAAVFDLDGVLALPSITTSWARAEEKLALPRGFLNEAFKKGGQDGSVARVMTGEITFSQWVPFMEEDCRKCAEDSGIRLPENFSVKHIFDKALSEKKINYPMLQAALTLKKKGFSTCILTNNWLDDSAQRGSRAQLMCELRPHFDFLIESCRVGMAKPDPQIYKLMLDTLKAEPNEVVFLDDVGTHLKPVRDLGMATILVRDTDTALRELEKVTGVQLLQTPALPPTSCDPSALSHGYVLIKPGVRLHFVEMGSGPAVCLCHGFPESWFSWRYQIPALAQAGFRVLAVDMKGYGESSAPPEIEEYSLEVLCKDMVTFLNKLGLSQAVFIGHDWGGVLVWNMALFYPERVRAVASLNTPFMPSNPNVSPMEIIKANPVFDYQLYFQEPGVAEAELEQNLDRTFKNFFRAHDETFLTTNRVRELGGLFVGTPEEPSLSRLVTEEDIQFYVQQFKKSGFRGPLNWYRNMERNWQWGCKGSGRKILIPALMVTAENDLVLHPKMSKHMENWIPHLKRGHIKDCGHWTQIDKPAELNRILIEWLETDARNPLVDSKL
Assay: Inhibition Assay
Text: The enzyme also can be detected based on the binding of specific ligands to the catalytic site which either immobilize the enzyme or label it with a probe such as dansyl, fluoracein, luciferase, green fluorescent protein or other reagent. The enzyme can be assayed by its hydration of EETs, its hydrolysis of an epoxide to give a colored product. The assays are normally carried out with a recombinant enzyme following affinity purification.

In the case of `CC(=O)N1CCC(NC(=O)Nc2ccc(OC(F)(F)F)cc2)CC1` [US10383835, Compound 1555], the IC50 is reported as 201 nM.
